Data as given in patent publication US11447550B2, “Peptides for molecular detection of PD-L1” (THE CURATORS OF THE UNIVERSITY OF MISSOURI, priority 2016, dated 2022).
Ends that are not written are not given here. * marks the point of attachment. Biotin = O=C1N[C@H]2[C@H](CS[C@H]2CCCCC(=O)*)N1

How the values were obtained:
PD-L1 [1] = molecular target: T1, PD-L1 (Homo sapiens, UniProt Q9NZQ7); experiment: Immunohistochemistry using biotinylated peptide on FFPE tissues; format: binding; set-up: Seven PD-L1 expressing NSCLC patient tissues were obtained from the MU OneHealth tissue bank; tissue MU OneHealth tissue bank; U.S. Biomax (TMA) LC1923; host or cells: FFPE placenta, seven NSCLC patient tissues, 192-case lung cancer tissue microarray, four Hodgkin's lymphoma cases; conditions: for staining of placental trophoblasts: FFPE placenta tissue (positive control), FIG. 8
Text: To detect PD-L1 in FFPE tissues, manual IHC techniques were employed with a biotin-conjugated version of peptide RK-10-Cy5 and compared with Ventana PD-L1 (SP263) Rabbit monoclonal Primary Antibody stained on a Roche Benchmark Ultra autostainer. Seven PD-L1 expressing NSCLC patient tissues were obtained from the MU OneHealth tissue bank and de-identified according to IRB protocols. Paraffin-embedded patient tissue slides were baked overnight, then de-waxed and rehydrated according to standard protocols. Tissue sections were then subjected to antigen retrieval in EDTA at 95° C. for 20 minutes in EDTA […]. The solution is then cooled for an additional 20 minutes on the bench top prior to buffer rinse. Tissues were then incubated with […] for 2 hours in a humid chamber at RT. After 2 hours, slides were washed with buffer and treated with PIERCE™ High Sensitivity Streptavidin-HRP (1:200 dilution) (Sigma) for 30 minutes at RT in a humid chamber. Once this was complete, slides were again washed in buffer then treated with DAB (3,3′-Diaminobenzidine; Sigma) for 10 minutes. Slides were again washed in buffer, then dehydrated using graded alcohol and xylene and counterstained with hematoxylin. Slides were then imaged using bright-field microscopy on a Leica DM5500.
Seven Patient NSCLC tissues were investigated for PD-L1 using either manual IHC with 15 μM RK-10-Biotin peptide, or the Ventana PD-L1 (SP263) rabbit monoclonal primary antibody stained on a Roche Benchmark Ultra. In this study the peptide was conjugated with biotin, which was used to bind a secondary treatment of streptavidin-HRP. Formalin-Fixed, Paraffin Embedded (FFPE) placenta tissue was used as the positive control, since PD-L1 is expressed in placental trophoblasts (Veras, E., Kurman, R. J., Wang, T.-L. & Shih, I.-M. International Journal of Gynecological Pathology Publish Ahead of Print). This study also utilized biotinylated mock peptide RK-11-Biotin as a negative control. This mock peptide was synthesized to have very low affinity to PD-L1. Both the PD-L1 peptide and Ventana clone SP263 stained the trophoblasts heavily in the placental tissue (FIG. 8). […] Blocking of the Ventana antibody was achieved by first treating the placenta tissue with RK-10-Biotin for 30 minutes, washing, and treating on the Roche autostainer according to specifications. […] As a negative control, normal lung, breast, and colorectal tissues were stained using RK-10 and SP263.
Once confidence in PD-L1 staining was established in repeated placenta tissues, staining in seven NSCLC patient tissues (patients ‘A’ through ‘G’) was compared with the Ventana SP263 antibody and RK-10-Biotin (FIG. 9). […]

PD-L1 [2] = molecular target: T1, PD-L1; experiment: IHC blocking using PD-L1 peptide or Ventana antibody SP263; format: binding; set-up: Seven PD-L1 expressing NSCLC patient tissues were obtained from the MU OneHealth tissue bank; tissue MU OneHealth tissue bank; U.S. Biomax (TMA) LC1923; host or cells: FFPE placenta, seven NSCLC patient tissues, 192-case lung cancer tissue microarray, four Hodgkin's lymphoma cases; conditions: placenta tissue treated with RK-10-Biotin for 30 minutes, then Ventana SP263 on Roche autostainer, FIG. 8 panel c
Protocol: To test specificity of the PD-L1 peptide, PD-L1 receptors were first blocked on the tissue with RK-10 peptide for 1 hour prior to autostaining the tissue with SP263 antibody using the Roche autostainer with the Ventana PD-L1 kit according to Roche's specifications. Blocking of the RK-10 peptide using the SP263 antibody was also investigated by first treating the tissue with SP263 antibody for 30 minutes prior to treating the tissue with peptide according to the previously mentioned protocol.
Seven Patient NSCLC tissues were investigated for PD-L1 using either manual IHC with 15 μM RK-10-Biotin peptide, or the Ventana PD-L1 (SP263) rabbit monoclonal primary antibody stained on a Roche Benchmark Ultra. In this study the peptide was conjugated with biotin, which was used to bind a secondary treatment of streptavidin-HRP. Formalin-Fixed, Paraffin Embedded (FFPE) placenta tissue was used as the positive control, since PD-L1 is expressed in placental trophoblasts (Veras, E., Kurman, R. J., Wang, T.-L. & Shih, I.-M. International Journal of Gynecological Pathology Publish Ahead of Print). This study also utilized biotinylated mock peptide RK-11-Biotin as a negative control. This mock peptide was synthesized to have very low affinity to PD-L1. Both the PD-L1 peptide and Ventana clone SP263 stained the trophoblasts heavily in the placental tissue (FIG. 8). […]

T1 sequence (Q9NZQ7 19-290): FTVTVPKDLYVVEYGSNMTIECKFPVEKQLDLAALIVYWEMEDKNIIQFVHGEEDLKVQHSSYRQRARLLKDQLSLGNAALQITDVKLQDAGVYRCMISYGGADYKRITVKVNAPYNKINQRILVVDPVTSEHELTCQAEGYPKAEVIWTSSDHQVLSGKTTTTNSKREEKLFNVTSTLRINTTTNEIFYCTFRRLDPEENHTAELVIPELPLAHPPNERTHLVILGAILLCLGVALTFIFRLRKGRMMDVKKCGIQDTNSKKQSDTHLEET

| staining of normal tissues (PD-L1 [1]; normal lung, breast and colorectal tissues (negative control)) | Substance | staining of placental trophoblasts (PD-L1 [1]) | tumor staining in NSCLC patient tissues (PD-L1 [1]; seven NSCLC patient tissues A-G, 15 μM peptide, FIG. 9) | SP263 staining after pre-blocking with peptide (PD-L1 [2]) |
| --- | --- | --- | --- | --- |
| – | Biotin-GSGSGSFVLNWYRMSPSNQTDKLAA [RK-11-Biotin] | light staining at high concentrations | – | – |
| – | Biotin-GSGSGSTYLCGAISLAPKAQIKESL [RK-10-Biotin] | heavy membrane staining of the trophoblast cells | heaviest staining was observed localized to the tumor regions of the tissues | drastic reduction of staining |
| negative for PD-L1 expression | GSGSGSTYLCGAISLAPKAQIKESL [RK-10] | – | – | – |
